# Earlier results as cited in patent publication US7205292B2, “CGRP receptor antagonists” (Merck & Co., Inc., priority 2003, dated 2007).
# Key:
# [1] = tested on: CGRP; details: marmoset, electrical stimulation of the trigeminal ganglion
# [2] = tested on: CGRP; details: rat, trigeminal ganglion stimulation
# [3] = tested on: CGRP; details: rats, electrical stimulation of the dura mater, prior administration
Molecule,effect on increase in facial blood flow [1],effect on increased facial blood flow [2],effect on increased diameter of the middle meningeal artery [3]
NCCCC[C@H](NC(=O)[C@@H](Cc1cc(Br)c(O)c(Br)c1)NC(=O)N1CCC(N2Cc3ccccc3NC2=O)CC1)C(=O)N1CCN(c2ccncc2)CC1 [BIBN4096BS],blocked,–,–
CGRP(8-37),–,inhibited,blocked
